Measurements: the supplement of paper PMC10307832

Experiments:
Test in all cases: relative viability (nuclei count vs DMSO), 5 days (fraction); higher = more cells survive
KIN001-266 + Navitoclax = compound: CCN1CCC(CC1)N2C=C(N=N2)CNC3=CC4=C(C(=CN=C4C(=C3)Cl)C#N)NC5=CC(=C(C=C5)F)Cl [KIN001-266] + CC1(C)CCC(c2ccc(Cl)cc2)=C(CN2CCN(c3ccc(C(=O)NS(=O)(=O)c4ccc(N[C@H](CCN5CCOCC5)CSc5ccccc5)c(S(=O)(=O)C(F)(F)F)c4)cc3)CC2)C1 [Navitoclax] (partner 0.5 µM)
Summary of the method: (§1)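 One day after seeding in 1536-well plates, lung cancer cell lines were dosed by pin tool. Dosing was either single-drug or a fixed anchor-drug dose plus five library-drug doses (not always all listed) in √10 steps. After 5 days, nuclei were stained in one fix-and-stain step and counted on 4× images, and relative viability is the nuclei count of treated wells over that of vehicle wells, given as the median of duplicate plates.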

KIN001-266 + Vorinostat = compound: CCN1CCC(CC1)N2C=C(N=N2)CNC3=CC4=C(C(=CN=C4C(=C3)Cl)C#N)NC5=CC(=C(C=C5)F)Cl [KIN001-266] + O=C(CCCCCCC(=O)Nc1ccccc1)NO [Vorinostat] (partner 1 µM)
Summary of the method: as §1

KIN001-266 + Linsitinib = compound: CCN1CCC(CC1)N2C=C(N=N2)CNC3=CC4=C(C(=CN=C4C(=C3)Cl)C#N)NC5=CC(=C(C=C5)F)Cl [KIN001-266] + C[C@]1(O)C[C@@H](c2nc(-c3ccc4ccc(-c5ccccc5)nc4c3)c3c(N)nccn32)C1 [Linsitinib] (partner 1 µM)
Summary of the method: as §1

KIN001-266 + Alpelisib = compound: CCN1CCC(CC1)N2C=C(N=N2)CNC3=CC4=C(C(=CN=C4C(=C3)Cl)C#N)NC5=CC(=C(C=C5)F)Cl [KIN001-266] + Cc1nc(NC(=O)N2CCC[C@H]2C(N)=O)sc1-c1ccnc(C(C)(C)C(F)(F)F)c1 [Alpelisib] (partner 2 µM)
Summary of the method: as §1

| Cell Line | relative viability (KIN001-266 + Navitoclax; first compound 0.08 µM) | relative viability (KIN001-266 + Navitoclax; first compound 0.253 µM) | relative viability (KIN001-266 + Navitoclax; first compound 0.8 µM) | relative viability (KIN001-266 + Navitoclax; first compound 2.53 µM) | relative viability (KIN001-266 + Navitoclax; first compound 8 µM) | relative viability (KIN001-266 + Vorinostat; first compound 0.08 µM) | relative viability (KIN001-266 + Vorinostat; first compound 0.253 µM) | relative viability (KIN001-266 + Vorinostat; first compound 0.8 µM) | relative viability (KIN001-266 + Vorinostat; first compound 2.53 µM) | relative viability (KIN001-266 + Vorinostat; first compound 8 µM) | relative viability (KIN001-266 + Linsitinib; first compound 0.08 µM) | relative viability (KIN001-266 + Linsitinib; first compound 0.253 µM) | relative viability (KIN001-266 + Linsitinib; first compound 0.8 µM) | relative viability (KIN001-266 + Linsitinib; first compound 2.53 µM) | relative viability (KIN001-266 + Linsitinib; first compound 8 µM) | relative viability (KIN001-266 + Alpelisib; first compound 0.08 µM) | relative viability (KIN001-266 + Alpelisib; first compound 0.253 µM) | relative viability (KIN001-266 + Alpelisib; first compound 0.8 µM) | relative viability (KIN001-266 + Alpelisib; first compound 2.53 µM) | relative viability (KIN001-266 + Alpelisib; first compound 8 µM) |
| --- | --- | --- | --- | --- | --- | --- | --- | --- | --- | --- | --- | --- | --- | --- | --- | --- | --- | --- | --- | --- |
| NCI-H1975 | 1.16 | 1.04 | 1.13 | 1.11 | 1.09 | 0.693 | 0.688 | 0.716 | 0.707 | 0.604 | 0.981 | 1.04 | 1.08 | 1.02 | 0.958 | 0.696 | 0.75 | 0.667 | 0.665 | 0.597 |
| LK-2 | 0.956 | 0.917 | 1.11 | 0.844 | 1.13 | 0.419 | 0.395 | 0.417 | 0.531 | 0.524 | 0.583 | 0.603 | 0.64 | 0.516 | 0.655 | 1.3 | – | 1.17 | – | 1.11 |
| NCI-H661 | – | – | – | – | – | 0.776 | 0.765 | 0.781 | 0.771 | 0.78 | 0.551 | 0.514 | 0.537 | 0.515 | 0.425 | 0.95 | 0.753 | 0.721 | 0.557 | 0.591 |
| NCI-H2342 | – | – | – | – | – | 0.693 | 0.867 | 0.876 | 0.776 | 1.16 | – | – | – | – | – | – | – | – | – | – |
| HCC-366 | 0.923 | 1.05 | 1.07 | 1.11 | 1.12 | 0.436 | 0.338 | 0.294 | 0.373 | 0.443 | 0.547 | 0.607 | 0.821 | 0.476 | 0.545 | 0.495 | 0.492 | 0.583 | 0.374 | 0.364 |
| HOP-62 | 1.11 | 1.02 | 1.06 | 1.05 | 0.95 | 0.812 | 0.661 | 0.786 | 0.685 | 0.527 | 0.961 | 1.01 | 1.09 | 0.945 | 0.439 | 1.09 | 1.21 | 0.967 | 1.02 | 0.84 |
| NCI-H1944 | 1.03 | 1.05 | 0.991 | 1.04 | 1.04 | 0.58 | 0.508 | 0.469 | 0.575 | 0.625 | 1.3 | 1.23 | 1.14 | 1.29 | 1.22 | 0.865 | 0.813 | 0.797 | 0.801 | 0.852 |
| EBC-1 | 0.398 | 0.413 | 0.409 | 0.359 | 0.217 | – | – | – | – | – | 1.04 | 0.896 | 0.839 | 1.01 | 0.726 | 0.929 | 0.879 | 0.822 | 0.843 | 0.629 |
| NCI-H1648 | – | – | – | – | – | 0.438 | 0.502 | 0.515 | 0.453 | 0.422 | – | – | – | – | – | – | – | – | – | – |
| SW 900 | – | – | – | – | – | 0.557 | 0.549 | 0.466 | 0.426 | 0.319 | – | – | – | – | – | – | – | – | – | – |
| ABC-1 | – | – | – | – | – | 1.36 | 1.24 | 1.26 | 1.09 | 0.987 | 1.1 | 0.788 | 0.945 | 0.76 | 0.713 | 1.23 | 1.08 | 1.09 | 0.812 | 0.976 |
| NCI-H1792 | 0.601 | 0.627 | 0.581 | 0.652 | 0.661 | – | – | – | – | – | 0.544 | 0.471 | 0.515 | 0.603 | 0.533 | 0.715 | 0.752 | 0.695 | 0.8 | 0.669 |
| NCI-H1563 | – | – | – | – | – | – | – | – | – | – | 1.16 | 1.22 | 1.25 | 1.16 | 1.1 | 0.996 | 0.904 | 0.92 | 0.906 | 0.897 |
| NCI-H1299 | 1.04 | 1.04 | 0.995 | 1.01 | 0.897 | – | – | – | – | – | 0.955 | 0.984 | 1 | 0.946 | 0.899 | 1.04 | 1.05 | 0.548 | 0.975 | 1.01 |
| ChaGo-K-1 | 1.27 | 1.12 | – | 1.1 | 1.14 | 0.792 | 0.718 | 0.737 | 0.645 | 0.535 | – | – | – | – | – | – | – | – | – | – |
| NCI-H2170 | 0.598 | 0.549 | 0.623 | 0.647 | 0.605 | 0.853 | 0.759 | 0.828 | 0.752 | 0.83 | – | – | – | – | – | 0.81 | 0.771 | 0.776 | 0.734 | 0.786 |
| NCI-H522 | – | – | – | – | – | 0.936 | 0.887 | 0.876 | 0.979 | 0.943 | – | – | – | – | – | – | – | – | – | – |
| A549 | 1.26 | 1.17 | 1.27 | 1.3 | 1.2 | – | – | – | – | – | 0.604 | 0.55 | 0.562 | 0.668 | 0.592 | 1.01 | 0.782 | 0.898 | 0.758 | 0.701 |
| NCI-H358 | – | – | – | – | – | 0.663 | 0.634 | 0.759 | 0.611 | 0.262 | 0.695 | 0.628 | 0.821 | 0.667 | 0.33 | 0.825 | 0.774 | 0.981 | 0.831 | 0.43 |
| NCI-H650 | – | – | – | – | – | 0.321 | 0.558 | 0.505 | 0.455 | 0.598 | 0.914 | 1.05 | 0.976 | 0.979 | 1.03 | 1.12 | 1.08 | 1.33 | 1.09 | 1.14 |
| LCLC-103H | – | – | – | – | – | 0.82 | 0.84 | 0.762 | 0.843 | 0.685 | 1.02 | 1.04 | 1.16 | 1.09 | 0.96 | 0.906 | 0.975 | 0.951 | 0.972 | 0.808 |
| NCI-H1650 | 1.09 | 1.1 | 1.23 | 1.15 | 0.985 | 0.566 | 0.622 | 0.668 | 0.488 | 0.337 | – | – | – | – | – | – | – | – | – | – |
| Calu-6 | 0.868 | 0.877 | 0.859 | 0.64 | 0.437 | – | – | – | – | – | 1.03 | 0.978 | 0.955 | 0.943 | 0.836 | 1.16 | 0.915 | 1.1 | 0.915 | 0.86 |
